“And” between values parts separate entries of the source, which are not always exact repeats. Equal values may be shown once.

In general, EC50 refers to the concentration giving half of the maximal effect.

In the test the target is T1, Rat PPARδ (Rattus norvegicus, UniProt Q62879).
T1 sequence (Q62879 1-440): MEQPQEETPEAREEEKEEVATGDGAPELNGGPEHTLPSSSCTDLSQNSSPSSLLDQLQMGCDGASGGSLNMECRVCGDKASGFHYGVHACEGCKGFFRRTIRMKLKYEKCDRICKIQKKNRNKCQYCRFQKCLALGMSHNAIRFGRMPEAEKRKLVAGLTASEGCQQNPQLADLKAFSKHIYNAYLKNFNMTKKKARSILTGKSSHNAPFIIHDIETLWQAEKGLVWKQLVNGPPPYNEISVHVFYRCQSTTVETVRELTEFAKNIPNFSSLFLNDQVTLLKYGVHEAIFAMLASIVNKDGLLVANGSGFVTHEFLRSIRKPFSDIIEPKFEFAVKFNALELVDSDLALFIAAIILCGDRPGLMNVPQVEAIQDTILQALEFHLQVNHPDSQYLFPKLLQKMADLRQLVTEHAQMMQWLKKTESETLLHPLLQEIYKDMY
Briefly: cell-based nuclear receptor profiling (Indigo Biosciences), PPARδ. The procedure: Rat PPARα, PPARδ, and PPARγ activities were determined by Indigo Biosciences (State College, PA) cell-based nuclear receptor profiling service.

The molecule `O=C1NC(=O)C(C2CCOc3cc(Oc4ccc(C(F)(F)F)cc4Cl)ccc32)S1` (stereo not drawn) [MK-2305] gave an EC50 above 10 µM. For the setting “@ 10 μM”, the “% Activation” value is -0.1 @ 10 μM % and -0.08%. Also, the “% Effect” value (Dose 0.309 nM) is -0.01%. Where the note is “Dose 0.981 nM”, the “% Effect” value was 0.01%. The “% Effect” value (Dose 3.11 nM) is on record as -0.001%. Also, for the setting “Dose 9.85 nM”, the “% Effect” value is given as -0.01%. For the same molecule, the “% Effect” value (Dose 31.2 nM) is recorded as -0.01%. For the same molecule, the “% Effect” value (Dose 99 nM) is given as 0.01%. Further, under “Dose 314 nM”, the “% Effect” value is reported as 0.00%. For the same molecule, for the setting “Dose 995 nM”, the “% Effect” value is -0.02%. Moreover, for the setting “Dose 3155 nM”, the “% Effect” value is -0.04%. Moreover, under “Dose 10000 nM”, the “% Effect” value was -0.08%.

The values are drawn from publication PMC5441580, “GPR40 partial agonist MK-2305 lower fasting glucose in the Goto Kakizaki rat via suppression of endogenous glucose production” (PLoS ONE, 2017).
